From patent EP3884963A1, “NAPROXEN/DEXAMETHASONE-BASED NANOPARTICLES” (Consejo Superior de Investigaciones Científicas (CSIC), priority 2020, dated 2021)

Test system: RAW264.7 macrophages
Test: In vitro viability assay of NPs (AlamarBlue)
Assay type: cell-based, murine
Details: RAW264.7, 24 h, all concentrations tested (NPs 0.011-0.25 mg/ml; free Dx at the concentration encapsulated); % respect to the control
Method: The RAW264.7 (murine macrophages) cell line was purchased from Sigma-Aldrich. RAW264.7 cells are an in vitro model useful to test the potential anti-inflammatory activity of new drugs. Cells were maintained over permissive conditions in high-glucose Dulbecco's modified Eagle's medium (DMEM; Sigma, Saint Louis, MO, USA) supplemented with 10% fetal bovine serum (FBS; Gibco, BRL), 2% L-Glutamine (Sigma, Saint Louis, MO, USA) and Penicillin-G (Sigma, Saint Louis, MO, USA) at 37 °C in a humidified incubator with 10% CO2.
2 x 10^5 live cells/mL (100 µL per well) were seeded in a 96 well-plate under permissive conditions. After 24 h, cells were exposed to different concentrations of free Dx and Dx-loaded or unloaded NSAID-based NPs suspension (0.25, 0.125, 0.09, 0.045, 0.023 and, 0.011 mg/ml) and cell viability was determined after 24 h of incubation with NPs. AlamarBlue (Invitrogen) was used to determine cell viability. Absorbance at 570 nm was measured by a Multi-Detection Microplate Reader Synergy HT (BioTek Instruments; Vermont, USA). The treatments were done in replicates (n = 8). Results of the experiments were expressed as percentage of relative cell viability (% respect to the control).

With `C[C@@H]1C[C@H]2[C@@H]3CCC4=CC(=O)C=C[C@]4(C)[C@@]3(F)[C@@H](O)C[C@]2(C)[C@@]1(O)C(=O)CO` [free Dx, Dexamethasone] the cell viability was “higher than 70%”.
